Results: patent publication US20230085307A1, “PYRIDAZINONE COMPOUND AND HERBICIDE” (NISSAN CHEMICAL CORPORATION, priority 2019, published 2023)

Tests used:
late watergrass = experiment: Test Example 1: herbicidal activity, application before weed generation under submerged conditions (Table 16, symbol A); type: in vivo, late watergrass (Echinochloa oryzicola)
Summary of the method: (§1)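 Alluvial soil was flooded to 4 cm depth, weed seeds were sown mixed and 2.5-leaf rice seedlings were transplanted. On sowing day, the compound's emulsion, diluted in water to a set dose, was applied to the water surface. Plants grew at 25–30 °C and were scored 0–5 after three weeks.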

Japanese bulrush = experiment: Test Example 1: herbicidal activity, application before weed generation under submerged conditions (Table 16, symbol B); type: in vivo, Japanese bulrush (Schoenoplectus juncoides)
Summary of the method: as §1

oval-leafed pondweed = experiment: Test Example 1: herbicidal activity, application before weed generation under submerged conditions (Table 16, symbol C); type: in vivo, oval-leafed pondweed (Monochoria vaginalis)
Summary of the method: as §1

barnyard grass [1] = experiment: Test Example 3: herbicidal effect by foliage application, Wagner pot (Table 18, symbol H); type: in vivo, barnyard grass (Echinochloa crus-galli); conditions: amount of applied herbicide 320 g/ha
Summary of the method: (§2)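 Plants were sown in alluvial soil held under 0.1–0.5 cm standing water and grown 14 days in a greenhouse at 25–30 °C. An emulsifiable formulation, water-diluted to the set dose, was then sprayed onto the foliage, and effects were scored three weeks later using previously defined criteria.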

Chinese sprangletop = experiment: Test Example 3: herbicidal effect by foliage application, Wagner pot (Table 18, symbol D); type: in vivo, chinese sprangletop (Leptochloa chinensis); conditions: amount of applied herbicide 320 g/ha
Summary of the method: as §2

rice flat sedge = experiment: Test Example 3: herbicidal effect by foliage application, Wagner pot (Table 18, symbol E); type: in vivo, rice flat sedge (Cyperus iria); conditions: amount of applied herbicide 320 g/ha
Summary of the method: as §2

southern crabgrass [2] = experiment: Test Example 4: herbicidal effect by soil treatment (Table 19, symbol F); type: in vivo, southern crabgrass (Digitaria ciliaris); conditions: amount of applied herbicide 320 g/ha
Summary of the method: (§3)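 Soil-surface application: an emulsion agent diluted with water to the predetermined dose is sprayed uniformly over seeds lying under roughly 1.5 cm of sterilized diluvial soil. Boxes stay in a greenhouse at 25° C. to 30° C. Three weeks later, each species is graded on previously defined criteria.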

green foxtail [3] = experiment: Test Example 4: herbicidal effect by soil treatment (Table 19, symbol G); type: in vivo, green foxtail (Setaria viridis); conditions: amount of applied herbicide 320 g/ha
Summary of the method: as §3

barnyard grass [4] = experiment: Test Example 4: herbicidal effect by soil treatment (Table 19, symbol H); type: in vivo, barnyard grass (Echinochloa crus-galli); conditions: amount of applied herbicide 320 g/ha
Summary of the method: as §3

wild oat [5] = experiment: Test Example 4: herbicidal effect by soil treatment (Table 19, symbol I); type: in vivo, wild oat (Avena fatua); conditions: amount of applied herbicide 320 g/ha
Summary of the method: as §3

blackgrass [6] = experiment: Test Example 4: herbicidal effect by soil treatment (Table 19, symbol J); type: in vivo, blackgrass (Alopecurus myosuroides); conditions: amount of applied herbicide 320 g/ha
Summary of the method: as §3

Italian ryegrass [7] = experiment: Test Example 4: herbicidal effect by soil treatment (Table 19, symbol K); type: in vivo, Italian ryegrass (Lolium multiflorum); conditions: amount of applied herbicide 320 g/ha
Summary of the method: as §3

windgrass [8] = experiment: Test Example 4: herbicidal effect by soil treatment (Table 19, symbol L); type: in vivo, windgrass (Apera spica-venti); conditions: amount of applied herbicide 320 g/ha
Summary of the method: as §3

velvetleaf [9] = experiment: Test Example 4: herbicidal effect by soil treatment (Table 19, symbol M); type: in vivo, velvetleaf (Abutilon theophrasti); conditions: amount of applied herbicide 320 g/ha
Summary of the method: as §3

redroot pigweed [10] = experiment: Test Example 4: herbicidal effect by soil treatment (Table 19, symbol N); type: in vivo, redroot pigweed (Amaranthus retroflexus); conditions: amount of applied herbicide 320 g/ha
Summary of the method: as §3

lambsquarters [11] = experiment: Test Example 4: herbicidal effect by soil treatment (Table 19, symbol O); type: in vivo, lambsquarters (Chenopodium album); conditions: amount of applied herbicide 320 g/ha
Summary of the method: as §3

false cleavers = experiment: Test Example 4: herbicidal effect by soil treatment (Table 19, symbol Q); type: in vivo, false cleavers (Galium spurium); conditions: amount of applied herbicide 320 g/ha
Summary of the method: as §3

persian speedwell [12] = experiment: Test Example 4: herbicidal effect by soil treatment (Table 19, symbol R); type: in vivo, Persian speedwell (Veronica persica); conditions: amount of applied herbicide 320 g/ha
Summary of the method: as §3

southern crabgrass [13] = experiment: Test Example 5: herbicidal effect by foliage application, plastic box (Table 20, symbol F); type: in vivo, southern crabgrass (Digitaria ciliaris); conditions: foliage application
Summary of the method: (§4)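 Sow seeds spot-wise in sterilized diluvial soil; cover with ~1.5 cm soil. Grow 14 days in greenhouse, 25° C. to 30° C. Spray foliage with emulsion diluted to predetermined amount. Rate effect after 3 weeks.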

green foxtail [14] = experiment: Test Example 5: herbicidal effect by foliage application, plastic box (Table 20, symbol G); type: in vivo, green foxtail (Setaria viridis); conditions: foliage application
Summary of the method: as §4

barnyard grass [15] = experiment: Test Example 5: herbicidal effect by foliage application, plastic box (Table 20, symbol H); type: in vivo, barnyard grass (Echinochloa crus-galli); conditions: foliage application
Summary of the method: as §4

wild oat [16] = experiment: Test Example 5: herbicidal effect by foliage application, plastic box (Table 20, symbol I); type: in vivo, wild oat (Avena fatua); conditions: foliage application
Summary of the method: as §4

blackgrass [17] = experiment: Test Example 5: herbicidal effect by foliage application, plastic box (Table 20, symbol J); type: in vivo, blackgrass (Alopecurus myosuroides); conditions: foliage application
Summary of the method: as §4

Italian ryegrass [18] = experiment: Test Example 5: herbicidal effect by foliage application, plastic box (Table 20, symbol K); type: in vivo, Italian ryegrass (Lolium multiflorum); conditions: foliage application
Summary of the method: as §4

windgrass [19] = experiment: Test Example 5: herbicidal effect by foliage application, plastic box (Table 20, symbol L); type: in vivo, windgrass (Apera spica-venti); conditions: foliage application
Summary of the method: as §4

velvetleaf [20] = experiment: Test Example 5: herbicidal effect by foliage application, plastic box (Table 20, symbol M); type: in vivo, velvetleaf (Abutilon theophrasti); conditions: foliage application
Summary of the method: as §4

redroot pigweed [21] = experiment: Test Example 5: herbicidal effect by foliage application, plastic box (Table 20, symbol N); type: in vivo, redroot pigweed (Amaranthus retroflexus); conditions: foliage application
Summary of the method: as §4

lambsquarters [22] = experiment: Test Example 5: herbicidal effect by foliage application, plastic box (Table 20, symbol O); type: in vivo, lambsquarters (Chenopodium album); conditions: foliage application
Summary of the method: as §4

chickweed = experiment: Test Example 5: herbicidal effect by foliage application, plastic box (Table 20, symbol P); type: in vivo, common chickweed (Stellaria media); conditions: foliage application
Summary of the method: as §4

persian speedwell [23] = experiment: Test Example 5: herbicidal effect by foliage application, plastic box (Table 20, symbol R); type: in vivo, Persian speedwell (Veronica persica); conditions: foliage application
Summary of the method: as §4

[24] = AAH 320 g/ha, evaluated three weeks after application
[25] = amount of applied herbicide 320 g/ha
[26] = 320 g/ha, three weeks after application

Compound: Cc1nn(C)c(=O)c(-c2c(-c3cccc(OCc4ccccc4)c3)sc3ccc(F)cc23)c1O [2-267]
- Herbicidal effect on A: late watergrass (grade 0-5) (late watergrass; 320 g/ha applied herbicide): 2 (Herbicidal rate of 20% or more and less than 40%)
- Herbicidal effect on B: Japanese bulrush (grade 0-5) (Japanese bulrush; 320 g/ha applied herbicide): 0 (Herbicidal rate of 5% or less (almost no effect))
- Herbicidal effect on C: oval-leafed pondweed (grade 0-5) (oval-leafed pondweed; 320 g/ha applied herbicide): 0 (Herbicidal rate of 5% or less (almost no effect))
- herbicidal effect on H: barnyard grass (barnyard grass [1]): 5 (Herbicidal rate of 90% or more (almost completely withered))
- herbicidal effect on D: Chinese sprangletop (Chinese sprangletop): 5 (Herbicidal rate of 90% or more (almost completely withered))
- herbicidal effect on E: rice flat sedge (rice flat sedge): 3 (Herbicidal rate of 40% or more and less than 70%)
- herbicidal effect on F: southern crabgrass (southern crabgrass [2]): 5 (Herbicidal rate of 90% or more (almost completely withered))
- herbicidal effect on G: green foxtail (green foxtail [3]): 3 (Herbicidal rate of 40% or more and less than 70%)
- herbicidal effect on H: barnyard grass (barnyard grass [4]): 5 (Herbicidal rate of 90% or more (almost completely withered))
- herbicidal effect on I: wild oat (wild oat [5]): 0 (Herbicidal rate of 5% or less (almost no effect))
- herbicidal effect on J: blackgrass (blackgrass [6]): 0 (Herbicidal rate of 5% or less (almost no effect))
- herbicidal effect on K: Italian ryegrass (Italian ryegrass [7]): 0 (Herbicidal rate of 5% or less (almost no effect))
- herbicidal effect on L: windgrass (windgrass [8]): 0 (Herbicidal rate of 5% or less (almost no effect))
- herbicidal effect on M: velvetleaf (velvetleaf [9]): 0 (Herbicidal rate of 5% or less (almost no effect))
- herbicidal effect on N: redroot pigweed (redroot pigweed [10]): 2 (Herbicidal rate of 20% or more and less than 40%)
- herbicidal effect on O: lambsquarters (lambsquarters [11]): 0 (Herbicidal rate of 5% or less (almost no effect))
- herbicidal effect on Q: false cleavers (false cleavers): 0 (Herbicidal rate of 5% or less (almost no effect))
- herbicidal effect on R: persian speedwell (persian speedwell [12]): 4 (Herbicidal rate of 70% or more and less than 90%)
- F: southern crabgrass, herbicidal effect (criteria 0-5) (southern crabgrass [13]; [24]): 4 (Herbicidal rate of 70% or more and less than 90%)
- G: green foxtail, herbicidal effect (criteria 0-5) (green foxtail [14]; [24]): 5 (Herbicidal rate of 90% or more (almost completely withered))
- H: barnyard grass, herbicidal effect (criteria 0-5) (barnyard grass [15]; [24]): 5 (Herbicidal rate of 90% or more (almost completely withered))
- I: wild oat, herbicidal effect (criteria 0-5) (wild oat [16]; [24]): 0 (Herbicidal rate of 5% or less (almost no effect))
- J: blackgrass, herbicidal effect (criteria 0-5) (blackgrass [17]; [24]): 2 (Herbicidal rate of 20% or more and less than 40%)
- K: Italian ryegrass, herbicidal effect (criteria 0-5) (Italian ryegrass [18]; [24]): 3 (Herbicidal rate of 40% or more and less than 70%)
- L: windgrass, herbicidal effect (criteria 0-5) (windgrass [19]; [24]): 0 (Herbicidal rate of 5% or less (almost no effect))
- M: velvetleaf, herbicidal effect (criteria 0-5) (velvetleaf [20]; [24]): 3 (Herbicidal rate of 40% or more and less than 70%)
- N: redroot pigweed, herbicidal effect (criteria 0-5) (redroot pigweed [21]; [24]): 4 (Herbicidal rate of 70% or more and less than 90%)
- O: lambsquarters, herbicidal effect (criteria 0-5) (lambsquarters [22]; [24]): 4 (Herbicidal rate of 70% or more and less than 90%)
- P: chickweed, herbicidal effect (criteria 0-5) (chickweed; [24]): 5 (Herbicidal rate of 90% or more (almost completely withered))
- R: persian speedwell, herbicidal effect (criteria 0-5) (persian speedwell [23]; [24]): 5 (Herbicidal rate of 90% or more (almost completely withered))

Compound: Cc1nn(CC#N)c(=O)c(-c2c(-c3ccc(F)cc3)sc3ccc(F)cc23)c1O [2-430]
- Herbicidal effect, A: late watergrass (late watergrass; [25]): 3 (Herbicidal rate of 40% or more and less than 70%)
- Herbicidal effect, B: Japanese bulrush (Japanese bulrush; [25]): 0 (Herbicidal rate of 5% or less (almost no effect))
- Herbicidal effect, C: oval-leafed pondweed (oval-leafed pondweed; [25]): 0 (Herbicidal rate of 5% or less (almost no effect))
- herbicidal effect on H: barnyard grass (barnyard grass [1]): 2 (Herbicidal rate of 20% or more and less than 40%)
- herbicidal effect on D: Chinese sprangletop (Chinese sprangletop): 0 (Herbicidal rate of 5% or less (almost no effect))
- herbicidal effect on E: rice flat sedge (rice flat sedge): 3 (Herbicidal rate of 40% or more and less than 70%)
- herbicidal effect, F: southern crabgrass (southern crabgrass [2]): 0 (Herbicidal rate of 5% or less (almost no effect))
- herbicidal effect, G: green foxtail (green foxtail [3]): 0 (Herbicidal rate of 5% or less (almost no effect))
- herbicidal effect, H: barnyard grass (barnyard grass [4]): 0 (Herbicidal rate of 5% or less (almost no effect))
- herbicidal effect, I: wild oat (wild oat [5]): 0 (Herbicidal rate of 5% or less (almost no effect))
- herbicidal effect, J: blackgrass (blackgrass [6]): 0 (Herbicidal rate of 5% or less (almost no effect))
- herbicidal effect, K: Italian ryegrass (Italian ryegrass [7]): 0 (Herbicidal rate of 5% or less (almost no effect))
- herbicidal effect, L: windgrass (windgrass [8]): 0 (Herbicidal rate of 5% or less (almost no effect))
- herbicidal effect, M: velvetleaf (velvetleaf [9]): 2 (Herbicidal rate of 20% or more and less than 40%)
- herbicidal effect, N: redroot pigweed (redroot pigweed [10]): 5 (Herbicidal rate of 90% or more (almost completely withered))
- herbicidal effect, O: lambsquarters (lambsquarters [11]): 1 (Herbicidal rate of 5% or more and less than 20%)
- herbicidal effect, Q: false cleavers (false cleavers): 0 (Herbicidal rate of 5% or less (almost no effect))
- herbicidal effect, R: persian speedwell (persian speedwell [12]): 0 (Herbicidal rate of 5% or less (almost no effect))
- F: southern crabgrass, herbicidal effect grade (southern crabgrass [13]; [26]): 0 (Herbicidal rate of 5% or less (almost no effect))
- G: green foxtail, herbicidal effect grade (green foxtail [14]; [26]): 2 (Herbicidal rate of 20% or more and less than 40%)
- H: barnyard grass, herbicidal effect grade (barnyard grass [15]; [26]): 1 (Herbicidal rate of 5% or more and less than 20%)
- I: wild oat, herbicidal effect grade (wild oat [16]; [26]): 0 (Herbicidal rate of 5% or less (almost no effect))
- J: blackgrass, herbicidal effect grade (blackgrass [17]; [26]): 0 (Herbicidal rate of 5% or less (almost no effect))
- K: Italian ryegrass, herbicidal effect grade (Italian ryegrass [18]; [26]): 3 (Herbicidal rate of 40% or more and less than 70%)
- L: windgrass, herbicidal effect grade (windgrass [19]; [26]): 0 (Herbicidal rate of 5% or less (almost no effect))
- M: velvetleaf, herbicidal effect grade (velvetleaf [20]; [26]): 2 (Herbicidal rate of 20% or more and less than 40%)
- N: redroot pigweed, herbicidal effect grade (redroot pigweed [21]; [26]): 3 (Herbicidal rate of 40% or more and less than 70%)
- O: lambsquarters, herbicidal effect grade (lambsquarters [22]; [26]): 3 (Herbicidal rate of 40% or more and less than 70%)
- P: chickweed, herbicidal effect grade (chickweed; [26]): 5 (Herbicidal rate of 90% or more (almost completely withered))
- R: persian speedwell, herbicidal effect grade (persian speedwell [23]; [26]): 4 (Herbicidal rate of 70% or more and less than 90%)
